# Data taken from PubChem BioAssay (NCI).
#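 The compound was tested at five concentrations on cells cultured in 96-well plates, with a 48-hour exposure period. The concentration for full growth arrest is given as TGI.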
# Tests used:
# Test in all cases: inhibition of tumour cell growth, NCI panel, 48 h
# SNB-19 CNS = test system: SNB-19 CNS
# RPMI-8226 leukemia = test system: RPMI-8226 leukemia
# U251 CNS = test system: U251 CNS
# OVCAR-8 ovarian = test system: OVCAR-8 ovarian
# NCI-H460 lung = test system: NCI-H460 lung
# XF 498 CNS = test system: XF 498 CNS
# HOP-62 NSCLC = test system: HOP-62 NSCLC
# K-562 leukemia = test system: K-562 leukemia
# M14 melanoma = test system: M14 melanoma
# SW-620 colon = test system: SW-620 colon
# HOP-92 NSCLC = test system: HOP-92 NSCLC
# HCT-15 colon = test system: HCT-15 colon
# UACC-62 melanoma = test system: UACC-62 melanoma
# DMS 273 small cell lung = test system: DMS 273 small cell lung
# KM12 colon = test system: KM12 colon
# CCRF-CEM leukemia = test system: CCRF-CEM leukemia
# SK-MEL-5 melanoma = test system: SK-MEL-5 melanoma
# NCI-H226 lung = test system: NCI-H226 lung
# UO-31 renal = test system: UO-31 renal
# MALME-3M melanoma = test system: MALME-3M melanoma
# NCI-H23 lung = test system: NCI-H23 lung
# OVCAR-3 ovarian = test system: OVCAR-3 ovarian
# COLO 205 colon = test system: COLO 205 colon
# UACC-257 melanoma = test system: UACC-257 melanoma
# SF-539 CNS = test system: SF-539 CNS
# HT29 colon = test system: HT29 colon
# HL-60(TB) leukemia = test system: HL-60(TB) leukemia
# OVCAR-5 ovarian = test system: OVCAR-5 ovarian
# SK-MEL-2 melanoma = test system: SK-MEL-2 melanoma
# KM20L2 colon = test system: KM20L2 colon
# MOLT-4 leukemia = test system: MOLT-4 leukemia
# SNB-78 CNS = test system: SNB-78 CNS
# SN12C renal = test system: SN12C renal
# LOX IMVI melanoma = test system: LOX IMVI melanoma
# A498 renal = test system: A498 renal
# NCI-H522 lung = test system: NCI-H522 lung
# CAKI-1 renal = test system: CAKI-1 renal
# 786-0 renal = test system: 786-0 renal
# SF-268 CNS = test system: SF-268 CNS
# SR leukemia = test system: SR leukemia
# OVCAR-4 ovarian = test system: OVCAR-4 ovarian
# SNB-75 CNS = test system: SNB-75 CNS
# M19-MEL melanoma = test system: M19-MEL melanoma
# TK-10 renal = test system: TK-10 renal
# HCC-2998 colon = test system: HCC-2998 colon
# SF-295 CNS = test system: SF-295 CNS
# RXF 393 renal = test system: RXF 393 renal
# DLD-1 colon = test system: DLD-1 colon
# IGROV1 ovarian = test system: IGROV1 ovarian
# LXFL 529 NSCLC = test system: LXFL 529 NSCLC
# HCT-116 colon = test system: HCT-116 colon
# A549 NSCLC = test system: A549 NSCLC
# SK-MEL-28 melanoma = test system: SK-MEL-28 melanoma
# HOP-18 NSCLC = test system: HOP-18 NSCLC
# ACHN renal = test system: ACHN renal
# EKVX NSCLC = test system: EKVX NSCLC
# SK-OV-3 ovarian = test system: SK-OV-3 ovarian
# DMS 114 small cell lung = test system: DMS 114 small cell lung
smiles,measurement,setting,value
COc1ccc(C(C)Nc2cc(OC)c(OC)c(OC)c2)cc1 (stereo not drawn),TGI,SNB-19 CNS,> 100 µM
same,TGI,RPMI-8226 leukemia,> 100 µM
same,TGI,U251 CNS,10 µM
same,TGI,OVCAR-8 ovarian,> 100 µM
same,TGI,NCI-H460 lung,> 25.5 µM
same,TGI,XF 498 CNS,> 26.4 µM
same,TGI,HOP-62 NSCLC,> 83.2 µM
same,TGI,K-562 leukemia,> 45 µM
same,TGI,M14 melanoma,> 100 µM
same,TGI,SW-620 colon,> 100 µM
same,TGI,HOP-92 NSCLC,> 100 µM
same,TGI,HCT-15 colon,> 100 µM
same,TGI,UACC-62 melanoma,> 100 µM
same,TGI,DMS 273 small cell lung,> 100 µM
same,TGI,KM12 colon,> 100 µM
same,TGI,CCRF-CEM leukemia,> 100 µM
same,TGI,SK-MEL-5 melanoma,> 100 µM
same,TGI,NCI-H226 lung,> 100 µM
same,TGI,UO-31 renal,> 100 µM
same,TGI,MALME-3M melanoma,> 29.7 µM
same,TGI,NCI-H23 lung,> 39.6 µM
same,TGI,OVCAR-3 ovarian,6.99 µM
same,TGI,COLO 205 colon,7.78 µM
same,TGI,UACC-257 melanoma,> 100 µM
same,TGI,SF-539 CNS,12.8 µM
same,TGI,HT29 colon,> 100 µM
same,TGI,HL-60(TB) leukemia,5.81 µM
same,TGI,OVCAR-5 ovarian,> 100 µM
same,TGI,SK-MEL-2 melanoma,81.1 µM
same,TGI,KM20L2 colon,7.3 µM
same,TGI,MOLT-4 leukemia,> 100 µM
same,TGI,SNB-78 CNS,17.6 µM
same,TGI,SN12C renal,> 100 µM
same,TGI,LOX IMVI melanoma,> 92.6 µM
same,TGI,A498 renal,> 100 µM
same,TGI,NCI-H522 lung,17.6 µM
same,TGI,CAKI-1 renal,> 100 µM
same,TGI,786-0 renal,> 100 µM
same,TGI,SF-268 CNS,9.59 µM
same,TGI,SR leukemia,> 100 µM
same,TGI,OVCAR-4 ovarian,63.8 µM
same,TGI,SNB-75 CNS,> 100 µM
same,TGI,M19-MEL melanoma,> 100 µM
same,TGI,TK-10 renal,> 100 µM
same,TGI,HCC-2998 colon,> 72.2 µM
same,TGI,SF-295 CNS,7.53 µM
same,TGI,RXF 393 renal,20.9 µM
same,TGI,DLD-1 colon,> 100 µM
same,TGI,IGROV1 ovarian,> 100 µM
same,TGI,LXFL 529 NSCLC,> 100 µM
same,TGI,HCT-116 colon,> 46.2 µM
same,TGI,A549 NSCLC,> 100 µM
same,TGI,SK-MEL-28 melanoma,> 100 µM
same,TGI,HOP-18 NSCLC,> 100 µM
same,TGI,ACHN renal,> 100 µM
same,TGI,EKVX NSCLC,> 100 µM
same,TGI,SK-OV-3 ovarian,> 62.5 µM
COc1cc(Nc2nc3cc(C)ccc3nc2-c2ccccc2)cc(OC)c1OC,TGI,SNB-19 CNS,> 100 µM
same,TGI,U251 CNS,> 100 µM
same,TGI,OVCAR-8 ovarian,> 100 µM
same,TGI,NCI-H460 lung,40 µM
same,TGI,XF 498 CNS,42.1 µM
same,TGI,K-562 leukemia,> 100 µM
same,TGI,M14 melanoma,> 100 µM
same,TGI,SW-620 colon,> 100 µM
same,TGI,HOP-92 NSCLC,> 100 µM
same,TGI,HCT-15 colon,48.7 µM
same,TGI,UACC-62 melanoma,63.6 µM
same,TGI,DMS 273 small cell lung,49.6 µM
same,TGI,KM12 colon,> 100 µM
same,TGI,CCRF-CEM leukemia,> 100 µM
same,TGI,SK-MEL-5 melanoma,35.1 µM
same,TGI,UO-31 renal,77.7 µM
same,TGI,MALME-3M melanoma,56.8 µM
same,TGI,NCI-H23 lung,57 µM
same,TGI,OVCAR-3 ovarian,41.8 µM
same,TGI,COLO 205 colon,43.7 µM
same,TGI,UACC-257 melanoma,> 100 µM
same,TGI,HT29 colon,33.7 µM
same,TGI,HL-60(TB) leukemia,54.5 µM
same,TGI,OVCAR-5 ovarian,> 100 µM
same,TGI,SK-MEL-2 melanoma,45.3 µM
same,TGI,KM20L2 colon,> 100 µM
same,TGI,MOLT-4 leukemia,76.6 µM
same,TGI,SN12C renal,> 100 µM
same,TGI,LOX IMVI melanoma,> 100 µM
same,TGI,A498 renal,> 100 µM
same,TGI,NCI-H522 lung,90.6 µM
same,TGI,CAKI-1 renal,> 100 µM
same,TGI,786-0 renal,33.9 µM
same,TGI,SF-268 CNS,> 100 µM
same,TGI,SR leukemia,69.9 µM
same,TGI,OVCAR-4 ovarian,> 100 µM
same,TGI,SNB-75 CNS,> 100 µM
same,TGI,M19-MEL melanoma,71 µM
same,TGI,TK-10 renal,> 100 µM
same,TGI,HCC-2998 colon,44.2 µM
same,TGI,DMS 114 small cell lung,31.5 µM
same,TGI,SF-295 CNS,56 µM
same,TGI,IGROV1 ovarian,> 100 µM
same,TGI,LXFL 529 NSCLC,> 100 µM
same,TGI,HCT-116 colon,45.2 µM
same,TGI,A549 NSCLC,> 100 µM
same,TGI,SK-MEL-28 melanoma,55.1 µM
same,TGI,HOP-18 NSCLC,73.1 µM
same,TGI,ACHN renal,> 100 µM
same,TGI,EKVX NSCLC,> 100 µM
same,TGI,SK-OV-3 ovarian,> 100 µM
